From ChEMBL document CHEMBL3132851, “Achieving improved permeability by hydrogen bond donor modulation in a series of MGAT2 inhibitors” (Medchemcomm, 2013)
Values after ≈ are worked out from the molar mass of the structure shown.

Assays:
[1] = molecular target: 2-acylglycerol O-acyltransferase 2 (Homo sapiens, UniProt Q3SYC2); assay: Inhibition of human MGAT2 by Rapidfire LCMS assay
[2] = (§1) Apparent permeability of the compound from apical to basolateral side in human Caco2 cells; conditions: Caco-2, Papp
[3] = Lipophilicity, log D of the compound at pH 7.4 after 30 mins by shake-flask method; conditions: buffer; for logD at 0.5 h: pH 7.4, logD; for logD: pH 7.4, 0.5 h, 0.5 h
[4] = Plasma clearance in mouse at 50 mg/kg, po and 1 mg/kg, iv; assay type: ADME, organism-based
[5] = Half life in rat at 1 mg/kg, iv; assay type: ADME, organism-based; parameters: dose 1 mg/kg, route intravenous; conditions: in vivo
[6] = Half life in rat at 3 mg/kg, po; assay type: ADME, organism-based; parameters: dose 3 mg/kg, route oral; conditions: in vivo
[7] = Unbound fraction in mouse plasma by equilibrium dialysis method; assay type: ADME, cell-free
[8] = Half life in mouse at 1 mg/kg, iv; assay type: ADME, organism-based; parameters: dose 1 mg/kg, route intravenous; conditions: in vivo
Cytochrome P450 3A4 = Cytochrome P450 3A4 (Homo sapiens, UniProt P08684); assay: Inhibition of CYP3A4 (unknown origin); assay type: ADME
[9] = Plasma clearance in rat at 3 mg/kg, po and 1 mg/kg, iv; assay type: ADME, organism-based
[10] = Aqueous solubility of the compound in phosphate buffer at pH 7.4 after 24 hrs by LC-UVMS analysis; assay type: physicochemical
[11] = Bioavailability in rat at 3 mg/kg, po and 1 mg/kg, iv; assay type: ADME, organism-based; conditions: in vivo
Cytochrome P450 2D6 = Cytochrome P450 2D6 (Homo sapiens, UniProt P10635); assay: Inhibition of CYP2D6 (unknown origin); assay type: ADME
[12] = Unbound fraction in human plasma by equilibrium dialysis method; assay type: ADME, cell-free
Cytochrome P450 2C9 = Cytochrome P450 2C9 (Homo sapiens, UniProt P11712); assay: Inhibition of CYP2C9 (unknown origin); assay type: ADME
Cytochrome P450 2C19 = Cytochrome P450 2C19 (Homo sapiens, UniProt P33261); assay: Inhibition of CYP2C19 (unknown origin); assay type: ADME
Cytochrome P450 1A2 = molecular target: T1, Cytochrome P450 1A2 (Homo sapiens, UniProt P05177); assay: Inhibition of CYP1A2 (unknown origin); assay type: ADME
T1 sequence (P05177 whole entry): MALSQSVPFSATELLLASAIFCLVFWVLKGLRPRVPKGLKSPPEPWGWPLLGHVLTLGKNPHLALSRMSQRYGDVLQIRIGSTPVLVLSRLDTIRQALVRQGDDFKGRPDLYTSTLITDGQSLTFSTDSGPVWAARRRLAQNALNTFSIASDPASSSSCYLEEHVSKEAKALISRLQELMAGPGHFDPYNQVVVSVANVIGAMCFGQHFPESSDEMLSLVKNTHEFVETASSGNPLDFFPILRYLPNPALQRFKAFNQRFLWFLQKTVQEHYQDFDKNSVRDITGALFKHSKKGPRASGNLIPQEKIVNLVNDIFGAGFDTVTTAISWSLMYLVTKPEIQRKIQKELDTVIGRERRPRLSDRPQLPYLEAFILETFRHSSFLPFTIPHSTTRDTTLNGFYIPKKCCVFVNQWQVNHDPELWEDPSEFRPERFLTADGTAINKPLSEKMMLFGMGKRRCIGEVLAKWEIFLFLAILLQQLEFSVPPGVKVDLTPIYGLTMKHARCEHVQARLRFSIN

[13] = Unbound fraction in rat plasma by equilibrium dialysis method; assay type: ADME, cell-free
[14] = Bioavailability in mouse at 50 mg/kg, po and 1 mg/kg, iv; assay type: ADME, organism-based; conditions: in vivo
[15] = Volume of distribution at steady state in mouse at 50 mg/kg, po and 1 mg/kg, iv; assay type: ADME, organism-based; conditions: in vivo, read-out: Vdss
[16] = Volume of distribution at steady state in rat at 3 mg/kg, po and 1 mg/kg, iv; assay type: ADME, organism-based; conditions: in vivo, read-out: Vdss
[17] = Half life in mouse at 50 mg/kg, po; assay type: ADME, organism-based; parameters: dose 50 mg/kg, route oral; conditions: in vivo
Caco-2 = assay: as §1; conditions: caco-2

Chain of 2-acylglycerol O-acyltransferase 2 (Q3SYC2 whole entry): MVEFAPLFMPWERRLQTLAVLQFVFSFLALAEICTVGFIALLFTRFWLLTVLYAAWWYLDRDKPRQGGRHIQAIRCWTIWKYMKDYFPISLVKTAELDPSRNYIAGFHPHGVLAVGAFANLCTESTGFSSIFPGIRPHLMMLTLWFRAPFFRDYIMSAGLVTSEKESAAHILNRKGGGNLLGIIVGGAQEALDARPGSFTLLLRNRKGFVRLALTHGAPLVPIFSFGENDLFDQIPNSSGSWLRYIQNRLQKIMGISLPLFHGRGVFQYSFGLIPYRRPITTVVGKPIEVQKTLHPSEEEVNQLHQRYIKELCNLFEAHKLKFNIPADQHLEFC
Chain of Cytochrome P450 2C19 (P33261 whole entry): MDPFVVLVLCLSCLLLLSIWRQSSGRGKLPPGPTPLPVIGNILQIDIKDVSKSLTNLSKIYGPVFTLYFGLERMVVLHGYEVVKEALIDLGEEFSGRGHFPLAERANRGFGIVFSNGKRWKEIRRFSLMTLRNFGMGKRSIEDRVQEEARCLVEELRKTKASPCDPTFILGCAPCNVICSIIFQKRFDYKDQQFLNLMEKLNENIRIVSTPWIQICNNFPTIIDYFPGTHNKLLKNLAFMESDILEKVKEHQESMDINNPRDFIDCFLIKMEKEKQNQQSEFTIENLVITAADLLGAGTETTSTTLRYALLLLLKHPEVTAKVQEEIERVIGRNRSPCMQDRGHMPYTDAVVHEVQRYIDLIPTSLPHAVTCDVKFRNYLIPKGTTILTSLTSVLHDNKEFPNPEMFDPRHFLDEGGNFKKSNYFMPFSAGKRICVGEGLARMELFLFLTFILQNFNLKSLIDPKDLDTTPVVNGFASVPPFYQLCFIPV
Chain of Cytochrome P450 2C9 (P11712 whole entry): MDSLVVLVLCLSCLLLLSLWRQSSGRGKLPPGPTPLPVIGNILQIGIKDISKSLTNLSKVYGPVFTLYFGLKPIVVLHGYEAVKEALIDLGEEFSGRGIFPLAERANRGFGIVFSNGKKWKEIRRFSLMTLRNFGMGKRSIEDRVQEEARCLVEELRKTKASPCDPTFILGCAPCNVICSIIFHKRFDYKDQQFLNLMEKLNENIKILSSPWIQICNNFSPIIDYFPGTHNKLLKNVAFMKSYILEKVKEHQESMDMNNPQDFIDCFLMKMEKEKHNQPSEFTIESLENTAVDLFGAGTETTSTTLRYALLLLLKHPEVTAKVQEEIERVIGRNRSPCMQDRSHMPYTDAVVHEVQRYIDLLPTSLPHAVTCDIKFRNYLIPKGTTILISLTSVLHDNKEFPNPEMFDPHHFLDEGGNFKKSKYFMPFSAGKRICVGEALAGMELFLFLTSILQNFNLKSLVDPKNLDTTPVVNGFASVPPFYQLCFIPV
Chain of Cytochrome P450 3A4 (P08684 whole entry): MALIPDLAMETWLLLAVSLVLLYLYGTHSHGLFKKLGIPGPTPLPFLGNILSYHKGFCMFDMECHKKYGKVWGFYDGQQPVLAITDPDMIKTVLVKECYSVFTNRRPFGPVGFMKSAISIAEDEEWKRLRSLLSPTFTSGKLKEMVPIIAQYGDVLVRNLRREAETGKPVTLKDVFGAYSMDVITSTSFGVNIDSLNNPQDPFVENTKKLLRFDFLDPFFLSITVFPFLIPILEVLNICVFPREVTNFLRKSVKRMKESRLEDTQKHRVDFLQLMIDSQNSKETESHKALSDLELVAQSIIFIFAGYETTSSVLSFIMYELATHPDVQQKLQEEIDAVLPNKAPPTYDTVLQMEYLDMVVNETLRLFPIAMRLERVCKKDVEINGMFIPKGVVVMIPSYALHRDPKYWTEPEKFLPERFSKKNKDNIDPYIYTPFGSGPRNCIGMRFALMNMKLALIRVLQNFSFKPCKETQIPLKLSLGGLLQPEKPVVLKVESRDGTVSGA
Chain of Cytochrome P450 2D6 (P10635 whole entry): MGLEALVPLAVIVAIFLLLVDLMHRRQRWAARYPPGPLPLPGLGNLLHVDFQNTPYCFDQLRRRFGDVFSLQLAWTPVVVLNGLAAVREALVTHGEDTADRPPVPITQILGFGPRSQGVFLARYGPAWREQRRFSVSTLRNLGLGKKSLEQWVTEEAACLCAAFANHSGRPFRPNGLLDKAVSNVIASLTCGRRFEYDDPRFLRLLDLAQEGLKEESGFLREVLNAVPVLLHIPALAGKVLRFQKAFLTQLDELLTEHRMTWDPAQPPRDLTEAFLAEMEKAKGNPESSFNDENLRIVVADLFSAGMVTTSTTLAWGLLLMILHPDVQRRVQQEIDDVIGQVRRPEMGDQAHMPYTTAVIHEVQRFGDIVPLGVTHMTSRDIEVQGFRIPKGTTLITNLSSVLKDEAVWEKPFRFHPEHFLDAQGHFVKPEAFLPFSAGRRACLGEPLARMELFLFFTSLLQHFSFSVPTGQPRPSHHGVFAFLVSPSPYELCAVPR

IC50 [1]	Papp A→B [2]	logD at 0.5 h [3]	SMILES	further results
13400 nM			Cc1cc2c(cc1S(=O)(=O)Nc1ccc(C(F)(F)F)cc1)C(=O)NC(C)(C)C(=O)N2	
> 66000 nM	10 ×10⁻⁶ cm/s	1.8	CC1(C)NC(=O)c2cc(S(=O)(=O)Nc3ccc(C(F)(F)F)cc3)cnc2NC1=O	
7610 nM	1 ×10⁻⁶ cm/s	2.8	COc1cc2c(cc1S(=O)(=O)Nc1ccc(C(F)(F)F)cc1)C(=O)NC(C)(C)C(=O)N2	
911 nM	6 ×10⁻⁶ cm/s	2.6	CC1(C)NC(=O)c2cc(S(=O)(=O)Nc3ccc(C(F)(F)F)cc3)ccc2NC1=O	
9 nM	35 ×10⁻⁶ cm/s	1.9	CCC1(C)NC(=O)c2cc(S(=O)(=O)Nc3ccc(F)cc3F)cc(Cl)c2NC1=O (stereo not drawn)	clearance [4]: 29 mL/min/kg; half-life [5]: 1.3 h; half-life [6]: 2.4 h; fraction unbound [7]: 0.037; half-life [8]: 0.2 h; IC50 (Cytochrome P450 3A4): > 30000 nM; clearance [9]: 4.1 mL/min/kg; solubility at 24 h [10]: 150 µM (≈ 66.6 µg/mL); bioavailability [11]: 69%; IC50 (Cytochrome P450 2D6): > 30000 nM; fraction unbound [12]: 0.017; IC50 (Cytochrome P450 2C9): > 30000 nM; IC50 (Cytochrome P450 2C19): 27000 nM; IC50 (Cytochrome P450 1A2): > 30000 nM; fraction unbound [13]: 0.03; bioavailability [14]: 74%; Vd [15]: 0.5 L/kg; Vd [16]: 0.4 L/kg; half-life [17]: 1.2 h
10500 nM	1 ×10⁻⁶ cm/s	1.6	CC1(C)NC(=O)c2cc(S(=O)(=O)Nc3ccc(C(F)(F)F)cc3)ncc2NC1=O	
58 nM	5 ×10⁻⁶ cm/s	1.3	CC1(C)NC(=O)c2cc(S(=O)(=O)Nc3ccc(F)cc3F)ccc2NC1=O	
12 nM	29 ×10⁻⁶ cm/s	1.8	CCC1(C)NC(=O)c2cc(S(=O)(=O)Nc3ccc(C(F)(F)F)cc3F)cc(Cl)c2NC1=O (stereo not drawn)	
52 nM	7 ×10⁻⁶ cm/s	2.6	Cc1cc(S(=O)(=O)Nc2ccc(C(F)(F)F)cc2)cc2c1NC(=O)C(C)(C)NC2=O	
> 100000 nM	7 ×10⁻⁶ cm/s	1.9	COc1c(S(=O)(=O)Nc2ccc(C(F)(F)F)cc2)ccc2c1C(=O)NC(C)(C)C(=O)N2	
12 nM	9 ×10⁻⁶ cm/s	1.7	CC[C@]1(C)NC(=O)c2cc(S(=O)(=O)Nc3ccc(C(F)(F)F)cc3F)ccc2NC1=O	
4 nM	24 ×10⁻⁶ cm/s	2.1	CCc1cc(S(=O)(=O)Nc2ccc(F)cc2F)cc2c1NC(=O)C(C)(CC)NC2=O (racemic)	
10 nM	22 ×10⁻⁶ cm/s	1.8	CCC1(C)NC(=O)c2cc(S(=O)(=O)Nc3ccc(F)cc3F)cc(OC)c2NC1=O (racemic)	
1950 nM	14 ×10⁻⁶ cm/s	2.3	CC1(C)NC(=O)c2cc(S(=O)(=O)Nc3ccc(C(F)(F)F)cc3)cc(F)c2NC1=O	
7 nM	58 ×10⁻⁶ cm/s	3	CCC1(C)NC(=O)c2cc(S(=O)(=O)Nc3ccc(C(F)(F)F)cc3OC)cc(Cl)c2NC1=O (stereo not drawn)	
7 nM			CCC1(C)NC(=O)c2cc(S(=O)(=O)Nc3ccc(F)cc3F)cc(C)c2NC1=O (single isomer, unassigned)	Papp (Caco-2): 9 ×10⁻⁶ cm/s; logD [3]: 6.5
	8 ×10⁻⁶ cm/s	1.7	CC[C@]1(C)NC(=O)c2cc(S(=O)(=O)Nc3ccc(F)cc3F)ccc2NC1=O	
16 nM	10 ×10⁻⁶ cm/s	1.4	Cc1cc(S(=O)(=O)Nc2ccc(F)cc2F)cc2c1NC(=O)C(C)(C)NC2=O	
405 nM	3 ×10⁻⁶ cm/s		CC1(C)NC(=O)c2cc(S(=O)(=O)Nc3ccc(F)cc3F)cc(C#N)c2NC1=O	
62 nM	14 ×10⁻⁶ cm/s	5.4	CCC1(C)NC(=O)c2cc(S(=O)(=O)Nc3ccc(F)cc3F)cc(C)c2NC1=O (single isomer, unassigned; enantiomer 2)	
23 nM			CCC1(C)NC(=O)c2cc(S(=O)(=O)Nc3ccc(C)cc3C#N)cc(Cl)c2NC1=O (single isomer, unassigned; enantiomer 1)	Papp (Caco-2): 14 ×10⁻⁶ cm/s; logD [3]: 0.4
13600 nM	9 ×10⁻⁶ cm/s		Cc1c(S(=O)(=O)Nc2ccc(C(F)(F)F)cc2)ccc2c1C(=O)NC(C)(C)C(=O)N2	
117 nM	11 ×10⁻⁶ cm/s	0.6	CCC1(C)NC(=O)c2cc(S(=O)(=O)Nc3ccc(C)cc3C#N)cc(Cl)c2NC1=O (single isomer, unassigned)	
1490 nM			CC1(C)NC(=O)c2cc(S(=O)(=O)Nc3ccc(C(F)(F)F)cc3)c(F)cc2NC1=O	
30 nM	46 ×10⁻⁶ cm/s	1.9	CC1(C)NC(=O)c2cc(S(=O)(=O)Nc3ccc(F)cc3F)cc(C(F)(F)F)c2NC1=O	
40400 nM	4 ×10⁻⁶ cm/s	2.4	CC1(C)NC(=O)c2c(ccc(S(=O)(=O)Nc3ccc(C(F)(F)F)cc3)c2F)NC1=O	
109 nM	12 ×10⁻⁶ cm/s	2.6	COc1cc(S(=O)(=O)Nc2ccc(C(F)(F)F)cc2)cc2c1NC(=O)C(C)(C)NC2=O	
